Measurements from patent US10456339B2, “Organic hydroperoxide reduction in perfumery raw materials” (FIRMENICH SA, priority 2017, dated 2019).
Several values for one entry are separate records, joined by “and”; a condition that tells them apart may be missing. Equal entries are not always repeated. Where two headings read alike, the source gives them in different places.

How the values were obtained:
[1] = Reduction of POV in sunflower oil using 2-oxovaleric acid; conditions: 250 μL in 25 mL sunflower oil
Procedure: 25 mL of sunflower oil (from an off-the-shelf, opened 1 quart container with approximately 25% atmospheric headspace; storage time unknown) was placed in a 30 mL vial at room temperature. 250 μL of 2-oxovaleric acid was added. The vial was shaken and allowed to stand at ambient temperature in laboratory lighting on the benchtop. No further treatment was done prior to the POV testing.
POV measurements were made on the sunflower oil before and after the 2-oxovaleric acid treatment. The untreated oil was also re-measured periodically for comparison, since opening of the bottle replenishes atmospheric headspace and can cause the POV of the bottle contents to rise. The % reduction was always calculated versus the most recent POV value on the untreated oil, and if multiple measurements were made, an averaged value (shown in parentheses) was used for the calculation.

[2] = POV of model perfume treated with AKG DiDeanol salt; conditions: 1.0% w/v
Procedure: (§1) A model perfume was made using 90/10 v/v ethanol/water as a solvent, and a mixture of orange, grapefruit, and bergamot oils as the perfume oil. The mixed citrus oil was loaded into the solvent at approximately 19.4% v/v (6 mL oil into 25 mL solvent). Approximately 200 mg (1.0% w/v) of the AKG DiDeanol salt was dissolved in 20 mL of the mixed citrus perfume, and POV measurements were taken as a function of time after the addition. An untreated perfume sample was handled similarly to the treated perfume and also tested, because the POV can rise rapidly with handling of the sample (opening the bottle, agitation, etc.).

[3] = POV of mixed citrus oil treated with AKG-DiMeC12A salt; conditions: 1.0% w/v, within 72 hours (3 days) after addition
Description: In addition to the treatment done in a model perfume as described above, a similar experiment was done in mixed citrus oil. A sample of mixed citrus oil was made by combining lime, orange, grapefruit, lemon, mandarin, tangerine, and bergamot oils, so that a variety of terpene hydroperoxides would be present in the treated mixture being tested. […] An untreated mixed citrus oil sample was handled similarly to the treated oil and also tested, because the POV can rise rapidly with handling of the sample (opening the bottle, agitation, etc.).

[4] = Surface tension of aqueous solution, pendant drop method; format: physicochemical; conditions: 0.14 weight % solution in water; pure water 71.57 mN/m
Procedure: The measurement was made on a Kruss DSA100S Tensiometer by the pendant drop method. […] This concentration was chosen so the results could be compared to the literature value for known surfactant sodium dodecyl sulfate (SDS) at 5 mM, which is approximately 0.15 weight %.

[5] = Reduction of POV in sunflower oil using AKG-DiMeC12A; conditions: for POV of treated oil: 0.3062 g in 15 mL sunflower oil
Description: (§3) The mixture was allowed to stand on the benchtop in ambient laboratory light at room temperature, and POV measurements were taken periodically.

[6] = POV of spiked consumer product: Skin Cream; conditions: 1% (w/w); for POV of treated Skin Cream: spiked with oxidized limonene
Procedure: This Example reports the treatment of exemplary consumer product formulations. […] All of the samples had not been fragranced, so the POV was be associated with autooxidized base components. The five consumer product formulations were spiked with an extremely oxidized limonene that was produced in a photoreactor as a source of mixed limonene hydroperoxide isomers (the POV was 1434 mmol/L).
Sample Preparation: 40 mL (Sample #3) or 40 g (Samples #1, 2, 4 & 5) were each spiked with 0.4 mL of oxidized limonene and mixed until homogeneous. Half of each spiked consumer product sample was transferred to a second container, and treated as described in the table below with 0.5-1% (w/w) of a 2-oxocarboxylic acid ammonium salt, then mixed to homogeneity. […]

[7] = Reduction of POV in model perfume using AKG-HEI; conditions: 1.0% w/v; 7 days after addition
Procedure: (§2) The mixed citrus oil was loaded into the solvent at approximately 16.7% v/v (40 mL oil into 200 mL solvent, 240 mL total perfume). Approximately 150 mg (1.0% w/v) of the AKG-HEI salt was dissolved in 15 mL of the mixed citrus perfume, and POV measurements were taken as a function of time after the addition. An untreated perfume sample was handled similarly to the treated perfume and also tested, because the POV can rise rapidly with handling of the sample (opening the bottle, agitation, etc.).

[8] = POV of model perfume treated with AKG-mono(DiMeC12A); conditions: 1.0% w/v; within 26 hours after the addition
Procedure: as §1, with “AKG-monoMeC12A” for “AKG DiDeanol”

[9] = Reduction of POV in sunflower oil using DiMeC10A-PhPA; conditions: for POV of treated oil: 0.3032 g in 15 mL sunflower oil
Description: as §3

[10] = Reduction of POV in model perfume using PhPA-DiMeC10A; conditions: […] w/v; 7 days after addition
Procedure: as §2, with “164” for “150”, “(1.1%” for “(1.0%”, “PhPA-DiMeC10A” for “AKG-HEI”

[11] = 0.3358 g in 15 mL sunflower oil; 23 days; indistinguishable from BLANK
[12] = Reduction of POV in model perfume using oxaloacetic acid; conditions: 0.83% w/v; 24 hours after treatment
[13] = Reduction of POV in limonene using phenylglyoxylic acid; conditions: 200 mg in 20 mL, room temperature
Procedure: 20 mL of autoxidized limonene was placed in a 30 mL glass vial at room temperature, along with a stir bar and an argon gas blanket. 200 mg of phenylglyoxylic acid was added, which dissolved. The vial was shaken once and allowed to stand, while being monitored for POV value as a function of time.

[14] = Reduction of POV in citrus oil using pyruvic acid
Procedure: 50 mL of mixed citrus oils (orange, lemon, lime, mandarin, bergamot, and tangerine) were placed in a 100 round bottom flask at room temperature, along with a stir bar and an argon gas blanket.
A 4:1 v/v isopropanol/pyruvic acid solution was made. 20 mL of this pyruvic acid solution was dripped into the stirred citrus oils at a rate of 0.25 mL/minute via the use of a syringe pump.
When the addition was complete, 10 mL of water and 100 mg of anhydrous sodium carbonate was added to the flask, and the stirring was maintained. When the visible evolution of CO2 had stopped (about 2-4 minutes), the aqueous layer was removed with a pipette and discarded. POV measurements were made on the mixed citrus oil before and after the pyruvic acid treatment.

[15] = Reduction of POV in mixed citrus oil using α-oxo-2-furanacetic acid; conditions: for Treated POV: 400 mg in 20 mL mixed citrus oil; for POV reduction: vs untreated oil at same time
Procedure: 20 mL of mixed citrus oil was placed in a 30 mL glass vial at room temperature, along with a stir bar and an argon gas blanket. 400 mg of α-oxo-2-furanacetic acid was added. The vial was shaken once and allowed to stand, while being monitored for POV value as a function of time. […] In this way, the undissolved solid acts as a sink to maintain a steady, low concentration of α-oxo-2-furanacetic acid dissolved in the mixed citrus oil.
In this case, because the time between measurements was relatively long (days instead of minutes), there is the possibility that the untreated mixed citrus oil will oxidize further during the course of the experiment. Therefore, the POV of the treated oil was still compared with the POV of the untreated oil, but the measurement of the untreated oil was re-determined at each time point (rather than just a single, initial value being used).

[16] = Reduction of POV in model perfume using α-ketoglutaric acid; conditions: 1.2% w/v; 24 hours after treatment

Q: Which “POV, single measurements” value ([1]; 23 hours) does the source give for `CCCC(=O)C(=O)O` [2-oxovaleric acid] here?
A: 4.95 mmol/L and 4.67 mmol/L

Q: What about the “POV, single measurements” value ([1]; 46 hours) of the same molecule?
A: 5.34 mmol/L and 5.10 mmol/L

Q: What about the “POV, single measurements” value ([1]; 15 days) of the same molecule?
A: 2.27 mmol/L and 2.05 mmol/L and 1.99 mmol/L

Q: Which “POV Treated Perfume” value ([2]; 60 min) does the source give for `CN(C)CCO.CN(C)CCO.O=C(O)CCC(=O)C(=O)O` [AKG DiDeanol] here?
A: 5.95 mmol/L

Q: And the “POV Treated Perfume” value ([2]; 75 min)?
A: 5.66 mmol/L

Q: And the “POV Treated Perfume” value ([2]; 115 min)?
A: 4.96 mmol/L

Q: And the “POV Treated Perfume” value ([2]; 195 min)?
A: 3.20 mmol/L

Q: What about the “POV Treated Perfume” value ([2]; 210 min) of the same molecule?
A: 3.08 mmol/L

Q: What about the “POV Treated Perfume” value ([2]; 300 min (5 hours)) of the same molecule?
A: 2.31 mmol/L

Q: What about the “POV Treated Perfume” value ([2]; 370 min) of the same molecule?
A: 1.73 mmol/L

Q: And the “POV Treated Perfume” value ([2]; 380 min)?
A: 1.72 mmol/L

Q: And the “POV Treated Perfume” value ([2]; […] (24 hours), indistinguishable from blank)?
A: 0.0 indistinguishable from mmol/L

Q: For `CCCCCCCCCCCCN(C)C.CCCCCCCCCCCCN(C)C.O=C(O)CCC(=O)C(=O)O` [AKG-DiMeC12A], which “reduction in the POV” value [3] is on record?
A: 89.0%

Q: And the surface tension [4]?
A: 32.08 mN/m

Q: And the “POV of treated oil” value ([5]; 50 minutes)?
A: 15.36 mmol/L

Q: And the “POV of treated oil” value ([5]; 1320 mins (22 hrs))?
A: 12.68 mmol/L

Q: What about the “POV of treated oil” value ([5]; 23 days) of the same molecule?
A: 3.05 mmol/L

Q: And the “% Reduction in POV” value ([5]; 50 minutes)?
A: 7.2%

Q: What about the “% Reduction in POV” value ([5]; 1320 mins (22 hrs)) of the same molecule?
A: 23.5%

Q: And the “% Reduction in POV” value ([5]; 23 days)?
A: 83.6%

Q: What about the “% Reduction in POV” value ([6]; 140 minutes) of the same molecule?
A: 56.7%

Q: And the “% Reduction in POV” value ([6]; 300 minutes (5 h))?
A: 68.4%

Q: And the “% Reduction in POV” value ([6]; 26 hrs)?
A: 84.6%

Q: And the “% Reduction in POV” value ([6]; 4 days)?
A: 90.9%

Q: And the “% Reduction in POV” value ([6]; 8 days)?
A: 93.0%

Q: What about the “% Reduction in POV” value ([6]; 15 days) of the same molecule?
A: 100.0%

Q: What about the “POV of treated Skin Cream” value ([6]; 140 minutes) of the same molecule?
A: 6.06 mmol/L

Q: And the “POV of treated Skin Cream” value ([6]; 300 minutes (5 h))?
A: 4.5 mmol/L

Q: And the “POV of treated Skin Cream” value ([6]; 26 hrs)?
A: 2.08 mmol/L

Q: What about the “POV of treated Skin Cream” value ([6]; 4 days) of the same molecule?
A: 1.16 mmol/L

Q: And the “POV of treated Skin Cream” value ([6]; 8 days)?
A: 0.82 mmol/L

Q: And the “POV of treated Skin Cream” value ([6]; 15 days)?
A: 0 mmol/L

Q: With `O=C(O)CCC(=O)C(=O)O.O=C1NCCN1CCO.O=C1NCCN1CCO` [AKG-HEI] as the molecule, how does the “reduction in POV relative to untreated material” value [7] read?
A: 92.1%

Q: Which results are given for `CCCCCCCCCCCCN(C)C.O=C(O)CCC(=O)C(=O)O` [AKG-mono(DiMeC12A)]?
A: surface tension [4]: 32.93 mN/m; reduction in the POV [8]: total and complete reduction

Q: Which results are given for `CCCCCCCCCCN(C)C.O=C(O)C(=O)Cc1ccccc1` [DiMeC10A-PhPA]?
A: solubility in sunflower oil ([9]; 0.3032 g in 15 mL): majority of the salt dissolved, but some undissolved solid remained; POV of treated oil ([9]; 55 minutes): 3.78 mmol/L; POV of treated oil ([9]; 140 minutes, indistinguishable from BLANK): 0.00 mmol/L; POV of treated oil ([9]; 1320 mins (22 hrs), indistinguishable from BLANK): 0.00 mmol/L; POV of treated oil ([9]; 23 days, indistinguishable from BLANK): 0.00 mmol/L; % Reduction in POV ([9]; 55 minutes): 77.2%; % Reduction in POV ([9]; 140 minutes): 100%; % Reduction in POV ([9]; 1320 mins (22 hrs)): 100%; % Reduction in POV ([9]; 23 days): 100%; reduction in POV relative to untreated material [10]: 87.2%

Q: With `CCCCCCCCCCN(C)C.O=C(O)C(=O)c1ccco1` [FAA-DiMeC10A] as the molecule, how does the “POV of treated oil” value [11] read?
A: 0.00 mmol/L

Q: With `O=C(O)CC(=O)C(=O)O` [oxaloacetic acid] as the molecule, how does the “reduction in the POV of the formulated perfume” value [12] read?
A: complete reduction

Q: Which “solubility in autoxidized limonene” value [13] does the source give for `O=C(O)C(=O)c1ccccc1` [phenylglyoxylic acid] here?
A: dissolved

Q: What does the source list for `CC(=O)C(=O)O` [pyruvic acid]?
A: POV after treatment ([14]; 50 mL mixed citrus oils, 20 mL 4:1 v/v isopropanol/pyruvic acid at 0.25 mL/minute, POV before treatment 27.261 mEq/L): 4.786 mEq./L; reduction in POV ([14]; after vs before pyruvic acid treatment): ~82%

Q: What does the source list for `O=C(O)C(=O)c1ccco1` [α-Oxo-2-furanacetic acid, α-oxo-2-furanacetic acid]?
A: solubility in mixed citrus oil ([15]; 400 mg in 20 mL): majority of the added α-oxo-2-furanacetic acid did not dissolve; Treated POV ([15]; 2 days since addition): 18.566 mEq/L; Treated POV ([15]; 4 days): 17.193 mEq/L; Treated POV ([15]; 44 days): 1.106 mEq/L; POV reduction ([15]; 2 days): 26.8%; POV reduction ([15]; 4 days): 39.8%; POV reduction ([15]; 44 days): 96.2%

Q: For `O=C(O)CCC(=O)C(=O)O` [α-ketoglutaric acid], which “reduction in the POV of the formulated perfume” value [16] is on record?
A: complete reduction
